Results on five molecules are retold here after US20100197687A1, “Indoles Useful in the Treatment of Inflammation” (priority 2005, published 2010).

Structures can show the parent of a compound that is named as a salt.

The assay deals with T1, mPGES-1 (Homo sapiens, UniProt O14684).
T1 construct: made in house; host or cells: E. coli
T1 sequence (O14684 1-152): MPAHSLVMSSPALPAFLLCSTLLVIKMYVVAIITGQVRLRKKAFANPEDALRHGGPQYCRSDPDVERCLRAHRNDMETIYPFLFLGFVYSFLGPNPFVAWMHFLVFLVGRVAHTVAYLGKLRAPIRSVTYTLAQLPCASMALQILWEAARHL
Nature of the assay: mPGES-1 biological test (conversion of PGH2 to PGE2, HPLC read-out). Format: biochemical. To be noted: mPGES-1 expressed in E. coli, membrane fraction; 25 min pre-incubation with inhibitor, 60 s with PGH2, room temperature; read-out: IC50 (inhibition of mPGES-1). The method, then:
In the assay mPGES-1 catalyses the reaction where the substrate PGH2 is converted to PGE2. mPGES-1 is expressed in E. coli and the membrane fraction is dissolved in 20 mM NaPi-buffer pH 8.0 and stored at −80° C. In the assay mPGES-1 is dissolved in 0.1M KPi-buffer pH 7.35 with 2.5 mM glutathione. The stop solution consists of H2O/MeCN (7/3), containing FeCl2 (25 mM) and HCl (0.15 M). The assay is performed at room temperature in 96-well plates. Analysis of the amount of PGE2 is performed with reversed phase HPLC (Waters 2795 equipped with a 3.9×150 mm C18 column). The mobile phase consists of H2O/MeCN (7/3), containing TFA (0.056%), and absorbance is measured at 195 nm with a Waters 2487 UV-detector.
The following is added chronologically to each well: • 1. 100 μL mPGES-1 in KPi-buffer with glutathione. Total protein concentration: 0.02 mg/mL. • 2. 1 μL inhibitor in DMSO. Incubation of the plate at room temperature for 25 minutes. • 3. 4 μL of a 0.25 mM PGH2 solution. Incubation of the plate at room temperature for 60 seconds. • 4. 100 μL stop solution. • 180 μL per sample is analyzed with HPLC.
With `CC(C)Oc1ccc(-n2c(C(=O)O)c(CN3CCOCC3)c3cc(-c4ccc(C(C)(C)C)cc4)ccc32)cc1` [Example 2, 5-(4-tert-Butylphenyl)-1-(4-isopropoxyphenyl)-3-morpholin-4-ylmethylindole-2-carboxylic acid], the IC50 amounted to 2.6 µM.

Consider `CC(C)Oc1ccc(-n2c(C(=O)O)c(CN(C)C)c3cc(-c4ccc(C(C)(C)C)cc4)ccc32)cc1` [Example 8, 5-(4-tert-Butylphenyl)-3-dimethylaminomethyl-1-(4-isopropoxyphenyl)indole-2-carboxylic acid], for which the IC50 is 0.56 µM.

As to `CC(C)Oc1ccc(-n2c(C(=O)O)c(CNC(CO)CO)c3cc(-c4ccc(C(F)(F)F)cn4)ccc32)cc1` [Example 9, 3-[(1,3-dihydroxypropan-2-ylamino)methyl]-1-(4-isopropoxyphenyl)-5-(5-trifluoromethylpyridin-2-yl)indole-2-carboxylic acid dihydrochloride], the IC50 was 2.1 µM.

Turning to `CC(C)(C)c1ccc(-c2ccc3c(c2)cc(CCC(=O)O)n3-c2ccc(OC3CCCC3)cc2)cc1` [Example 29, 3-[5-(4-tert-Butylphenyl)-1-(4-cyclopentyloxyphenyl)indol-2-yl]-propionic acid], the IC50 came to 0.78 µM.

`CC(C)Oc1ccc(-n2c(CC(=O)O)cc3cc(Oc4ccc(Cl)cc4)ccc32)cc1` [Example 32, [5-(4-Chlorophenoxy)-1-(4-isopropoxyphenyl)indol-2-yl]acetic acid]: the IC50 worked out at 3.2 µM.
